According to patent US11767330B2, “Citrate salt, pharmaceutical compositions, and methods of making and using the same” (Foghorn Therapeutics Inc., priority 2021, dated 2023):
Entries after “also recorded” stand apart in the source; their conditions may differ.

Experiments:
Assay type in all cases: physicochemical
[1] = Stability at 40° C./75% RH for 1 week; conditions: for XRPD after storage / chemical purity by HPLC after storage / chiral purity by HPLC after storage: 40° C. and 75% RH
Experimental: The humid environment was generated with saturated sodium chloride in water in a sealed container. After one week, the sample appeared pale-yellow upon inspection.
(§1) The one-week stability at 75% RH was also tested. In this experiment, 12 mg of the dried crystalline freebase from MeOH were weighted in a 4 mL vial and placed in a 20 mL vial set at 40° C. and 75% RH for 1 week. The humid environment was generated with saturated sodium chloride in water in a sealed container.
as §1, with “the” for “the dried”, “was” for “were”

[2] = Dynamic vapor sorption (DVS) hygroscopicity
Experimental: Dynamic Vapor Sorption (DVS). DVS was performed using a Q5000SA. The sample (5-15 mg) was loaded into a metallic quartz sample pan, suspended from a microbalance, and exposed to a humidified stream of nitrogen gas. Weight changes were relative to a matching empty reference pan opposite the sample, suspended from the microbalance. One of two methods was used:
Method 1: The sample was held for a minimum of 10 min at each level and only progressed to the next humidity level if there was <0.002% change in weight between measurements (interval: 5 s) or 60 min had elapsed.

[3] = Physical stability by XRPD upon drying at 50° C. under vacuum and exposure to >95% RH
Experimental: (§2) X-Ray Powder Diffraction (XRPD). XRPD was performed using a Rigaku MiniFlex 600 in reflection mode (i.e., Bragg-Brentano geometry). Samples were prepared on Si zero-return wafers.
XRPD analysis was done in three stages. XRPD of the wet cake was done for all samples where solids were observed.
(§3) The solids were then exposed to >95% RH overnight. This humid environment was produced by placing a beaker of saturated potassium sulfate in water in a sealed container at RT. The materials exposed to these conditions were evaluated by XRPD, and their patterns were compared to those produced before.
as §3, with “The pattern FF-B was dried at 50° C. under vacuum for 3 h after filtration for further XRPD analysis. The solids” for “The solids”, “to those of the crystalline freebase along each step.” for “to those produced before.”

[4] = Solid form characterisation (TGA/DSC, KF, XRPD, HPLC chemical and chiral purity); conditions: initial, before stability test
Experimental: Differential Scanning Calorimetry (DSC). DSC was performed using a Mettler Toledo DSC^3+. The sample (1-5 mg) was weighed directly in a 40 μL hermetic aluminum pan with a pinhole and analyzed according to the parameters in Tables 41 and 42.
High Performance Liquid Chromatography (HPLC). HPLC was conducted using an Agilent 1220 Infinity LC or Agilent 1220 Infinity 2 LC equipped with diode array detector (DAD). Flow rate range of the instrument is 0.2-5.0 mL/min, operating pressure range is 0-600 bar, temperature range is 5° C. above ambient to 60° C., and wavelength range is 190-600 nm.
Karl Fischer (KF) Titration. KF titration for water determination was performed using a Mettler Toledo C20S Coulometric KF Titrator equipped with a current generator cell with a diaphragm, and a double-platinum-pin electrode. The range of detection of the instrument is 1 ppm to 5% water. Aquastar™
CombiCoulomat fritless reagent was used in both the anode and cathode compartments. Samples of approximately 0.03-0.10 g were dissolved in the anode compartment and titrated until the solution potential dropped below 100 mV. Hydranal 1 wt. % water standard was used for validation prior to sample analysis.
Simultaneous Thermogravimetric Analysis and Differential Scanning Calorimetry (TGA and DSC). TGA and DSC were performed on the same sample simultaneously using a Mettler Toledo TGA/DSC^3+. Protective and purge gas was nitrogen at a flowrate of 20-30 mL/min and 50-100 mL/min, respectively. The desired amount of sample (5-10 mg) was weighed directly in a hermetic aluminum pan with pinhole and analyzed according to the parameters below:
as §2
XRPD was performed using a Bruker D8 Advance equipped with LYNXEYE detector in reflection mode (i.e., Bragg-Brentano geometry). Samples were prepared on Si zero-return wafers.

[5] = Thermal treatment of solid forms followed by XRPD; conditions: heated, held, cooled down to RT
Experimental: Thermal Treatment of Amorphous Salt. […] The thermal events were measured by TGA/DSC and XRPD was used to study the resulting materials.
To study the effect of the temperature, the compound was subjected to a thermal treatment consisting of heating up the sample from RT up to 100° C. at a 10° C./min, and holding this temperature for 5 min to subsequently cool down to RT. The sample was collected and further analyzed with XRPD.
The sample was subjected to a thermal treatment consisting of heating the sample gradually (10° C./min) up to the first two thermal events shown by TGA/DSC analysis, i.e., 130 and 225° C. In each case, the temperature was held for 5 min, followed by cooling down to RT. The sample was collected and further analyzed with XRPD. […] Overall, the crystalline freebase Pattern FF-B obtained from acetone lost some crystallinity upon drying and exposure to humidity and heat.

[6] = Amorphous to crystalline studies (long-term slurries, vapor diffusion, slow evaporation); conditions: Am = amorphous
Experimental: Long-Term Slurries. Long-term slurries were carried out for the purpose of producing crystalline forms. […] In this procedure, 30 mg of solid was added to a 2 mL vial containing a 6.3 mm stir bar. Then, 3 vol. of solvent was added, followed by the addition of more solvent in 5 vol. increments until it formed a flowable slurry. After 10 days, the solids were filtered and transferred to an XRPD plate for further analysis on the wet cake. Overall, crystalline patterns were not observed after one week. However, a crystalline solid was observed after stirring in MeOH for about six weeks.
Vapor-Diffusion Crystallization onto Solution and Solids. […] A suitable solvent was added to completely dissolve the solid, while producing a solution of slightly undersaturated concentration. The open vial was placed inside a 20 mL scintillation vial and 3 mL of antisolvent was added to the 20 mL vial to diffuse into the solution. The 20 mL vial was capped, sealed with parafilm, and kept undisturbed at RT.
Vapor diffusion onto solids was also started. The procedure is very similar, with the only difference that the active pharmaceutical ingredient (API) is not dissolved in a solvent; the vapor diffused directly onto the solid. The samples were monitored for visual changes in the solid (color, texture, size, etc.) over 2 months.
Slow Evaporation. […] The samples that were thin slurries were filtered with a […] syringe filter to obtain a clear solution. In some cases, cosolvent was added to obtain a solution. A needle was inserted in the cap septa to allow the solvents to evaporate slowly. The solutions were monitored frequently for precipitation.

COc1cc(-c2cn(C)c(=O)c3cnc(N4CCC4)cc23)cc(OC)c1CN1CCC(CN2CCC3(CC2)CN(c2ccc4c(c2)C(=O)N([C@@H]2CCC(=O)NC2=O)C4)C3)CC1 [pattern FF-B]
XRPD after storage [1]: splitting of the signal at 5.3 and 13.7°
chemical purity by HPLC after storage [1]: 98.56%
chiral purity by HPLC after storage [1]: 96.13%
Purity by HPLC (%) After 1 week 75% RH [chiral] ([1]; 40° C./75% RH): [96.13] %
Purity by HPLC (%) After 1 week 75% RH chemical ([1]; 40° C./75% RH): 98.56%
HPLC chemical purity after DVS analysis [2]: 99.06%
XRPD after DVS analysis [2]: slight loss in crystallinity
hygroscopicity according to the European Pharmacopeia standards (DVS) [2]: hygroscopic
Hygroscopicity by DVS (up to 95% RH) ([2]; mass change up to 95% RH): >8.80 wt. %
physical stability (XRPD) upon drying at 50° C. under vacuum and exposure to >95% RH [3]: crystallinity of the compound decreased after drying the sample under vacuum; also recorded: Some of the crystallinity was regained after exposing the sample to high RH overnight
XRPD pattern Dry ([3]; after drying, Am = amorphous): FF-B
XRPD pattern Humid ([3]; after exposure to humidity, Am = amorphous): FF-B
XRPD pattern Wet ([3]; solid form of compound R-D1, Am = amorphous): FF-B
Purity by HPLC (%) [chiral] [4]: [96.56] %
Purity by HPLC (%) chemical [4]: 98.85%
XRPD after thermal treatment [5]: decreased crystallinity after exposure to 130 °C

COc1cc(-c2cn(C)c(=O)c3cnc(N4CCC4)cc23)cc(OC)c1CN1CCC(CN2CCC3(CC2)CN(c2ccc4c(c2)C(=O)N([C@@H]2CCC(=O)NC2=O)C4)C3)CC1.O=C(O)CC(O)(CC(=O)O)C(=O)O [citrate salt of compound R-D1]
XRPD after storage [1]: did not show conversion to a crystalline form
Pattern ([6]; antisolvent vapor diffusion onto solution, RT, solvent Benzyl alcohol, antisolvent Acetone): Am
Pattern ([6]; antisolvent vapor diffusion onto solution, RT, solvent Benzyl alcohol, antisolvent EtOH): Am
Pattern ([6]; antisolvent vapor diffusion onto solution, RT, solvent Benzyl alcohol, antisolvent MeOAc): Am
Pattern ([6]; antisolvent vapor diffusion onto solution, RT, solvent DMAC, antisolvent ACN): Am
Pattern ([6]; antisolvent vapor diffusion onto solution, RT, solvent DMAC, antisolvent Acetone): Am
Pattern ([6]; antisolvent vapor diffusion onto solution, RT, solvent DMAC, antisolvent DCM): Am
Pattern ([6]; antisolvent vapor diffusion onto solution, RT, solvent DMAC, antisolvent EtOAc): Am
Pattern ([6]; antisolvent vapor diffusion onto solution, RT, solvent DMAC, antisolvent IPA): Am
Pattern ([6]; antisolvent vapor diffusion onto solution, RT, solvent DMAC, antisolvent MEK): Am
Pattern ([6]; antisolvent vapor diffusion onto solution, RT, solvent DMSO, antisolvent Acetone): Am
Pattern ([6]; antisolvent vapor diffusion onto solution, RT, solvent DMSO, antisolvent DCM): Am
Pattern ([6]; antisolvent vapor diffusion onto solution, RT, solvent DMSO, antisolvent EtOH): Am
Pattern ([6]; antisolvent vapor diffusion onto solution, RT, solvent DMSO, antisolvent MEK): Am
Pattern ([6]; antisolvent vapor diffusion onto solution, RT, solvent DMSO, antisolvent MeOAc): Am
Pattern ([6]; vapor diffusion onto solids, over 2 months, antisolvent Chloroform): Am
Pattern ([6]; vapor diffusion onto solids, over 2 months, antisolvent Cyclohexane): Am
Pattern ([6]; vapor diffusion onto solids, over 2 months, antisolvent DCM): Am
Pattern ([6]; vapor diffusion onto solids, over 2 months, antisolvent Diethyl ether): Am
Pattern ([6]; vapor diffusion onto solids, over 2 months, antisolvent Hexanes): Am
Pattern ([6]; vapor diffusion onto solids, over 2 months, antisolvent MeOH): Am
Pattern ([6]; vapor diffusion onto solids, over 2 months, antisolvent Methyl cyclohexane): Am
Pattern ([6]; vapor diffusion onto solids, over 2 months, antisolvent MtBE): Am
XRPD after thermal treatment [5]: None of these experiments resulted in crystalline solids

COc1cc(-c2cn(C)c(=O)c3cnc(N4CCC4)cc23)cc(OC)c1CN1CCC(CN2CCC3(CC2)CN(c2ccc4c(c2)C(=O)N([C@@H]2CCC(=O)NC2=O)C4)C3)CC1 [Pattern FF-A]
chemical purity by HPLC after storage [1]: 98.27%
chiral purity by HPLC after storage [1]: 94.55%
HPLC chemical purity after DVS analysis [2]: 98.68%
XRPD after DVS analysis [2]: new signal at 26=5.8°
hygroscopicity according to the European Pharmacopeia standards (DVS) [2]: hygroscopic
physical stability (XRPD) upon drying at 50° C. under vacuum and exposure to >95% RH [3]: Reduction in the crystallinity
XRPD after thermal treatment [5]: loss of some crystallinity
